The subject of one data set is HIV-2. In words: Test F (HIV-2 RT), RT activity in supernatant of infected MT-4/H9 cells. It counts as cell-based. Conditions: Human immunodeficiency virus 2, H9, Test F. Here is the method: (§1) Tests E, F, G, H (HIV-IRT, HIV-2RT, SIVRT, no virus)
(§2) MT-4/H9-cells are adjusted to 2x10^5 cells/ml medium (RPMI 1640, 5% FCS, penicillin/streptomycin) and seeded into microplates (96 wells/plate) […] cell suspension/well giving 2 x 10^4 cells/well. The compound to be tested is made 10 mg/ml in DMSO = stock solution (stored at -20°C). The compound dissolved in DMSO is diluted 25 times in medium to give 400 mg/ml. Further dilutions to 40 mg/ml and 4 mg/ml are made in microplates.
(§3) 50 µl of the dilutions 400 mg/ml, 40 mg/ml and 4mg/ml are transferred to the "cell-containing" microplate with a multichannel pipette. […]
(§4) Finally 50 µl of virus suspension is added to each well (with a repetitive "Eppendorf multipett"). [Test E-HIV-1; Test F-HIV-2; Test G-SIV; Test H-no virus].
(§5) Each plate has at least four wells with virus but no drug (virus control) and two wells without virus (medium control). The plate is put into a plastic bag to avoid evaporation and incubated for six days in CO2-atmosphere. 10 µl supernatant from each well is transferred with a multichannel pipette into a new microplate to which 40 ml VDB, (50 mM Tris-HCl pH = 7.6, 35 mM KCl, 4 mM DTT, 1 mM EDTA, 1.3% Triton X-100), have been added to each well. The addition of 50 ml RT-reaction mix, (10 ml culture supernatant, 40 ml VDB and 50 ml reaction mixture giving a final concentration of: 100 mM Tris-HCl pH = 7.6, 100 mM KCl, 4 mM MgCl2, 4 mM DTT, 275 mg/ml BSA/ml, 5 mg (rA)n(dT)12-18/ml and 0.3 mM ^3H dTTP (specific activity 18.000 cpm/pmol)) gives a final volume of […]/well. After 60 minutes of incubation the whole assay volume is transferred by use of a cell harvester to a filter mat prewetted with 5% TCA. The filter is washed in 5% TCA and rinsed once in ethanol. After drying the filter mat at 60°C for 30 min. each filter (96/mat) is punched out and put into counting vials 2 ml of scintillation fluid is added and the samples are counted (1 min) or the whole filter mat is put into a plastic bag, 10 ml of scintillation fluid is added and the filter mat is counted in a Beckman Betaplate counter. Percent reduction of RT activity is determined by comparing RT activity for virus control with the RT activity measured for each dilution of the compound.

A further data set relates to SIV virus. Kind of data set: Test C (XTT), MT4 cells infected with SIV. It counts as cell-based. Particulars: Simian immunodeficiency virus, MT4, Test C. The essentials:
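MT4 cells in RPMI 1640 with 5% FCS and penicillin/streptomycin were plated at 2x10^4 cells/well in 96-well microplates, exposed to test compound diluted from DMSO stock, and infected with SIV virus. After six days' incubation in CO2, XTT was added for six hours, OD read at 450 nm (reference 650 nm), and percent reduction of virus-induced cytotoxicity calculated versus infected and uninfected controls.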
A general note: Tetrazolium dyes change colour on reduction, which living cells bring about.

Data set [1] relates to HIV-1. Kind of data set: Test E (HIV-1 RT), RT activity in supernatant of infected MT-4/H9 cells. It counts as cell-based. Particulars: Human immunodeficiency virus 1, H9, Test E. Here is the method:
as §1, §2, §3, §4, §5

The test system of a further data set is HIV(II) virus. Kind of data set: Test B (XTT), MT4 cells infected with HIV(II). Particulars: Human immunodeficiency virus 1, MT4, Test B. It counts as cell-based. How it is done: (§6) Tests A, B, C, and D (XTT)
(§7) MT4 cells in a medium of RPMI 1640, 5% FCS, penicillin/streptomycin are adjusted to 2x10^5 cells/ml and seeded into microplates (96 wells/plate) 100 µl cell suspension/well giving 2x10^4 cells/well. The compound to be tested is made into a 10 mg/ml mixture in DMSO and stored at -20°C. The compound in DMSO is diluted with medium containing 10% DMSO in a 10-fold dilution series to give 1 mg/ml, 10 mg/ml, and […] solutions. Further dilutions to 400, 40, 4 and 0.4 mg/ml are made in medium containing microplates. Fifty µl of the 400, 40, and 4 mg/ml are transferred to the cell-containing microplates with a multi-channel pipette (final concentration: 100, 10, and 1 mg/ml). Finally, 50 µl of virus suspension is added to each well (with a repetitive "Eppendorf" multipipett). Each plate has at least six wells with the following: [Test A: HIV virus; Test B: HIV(II) virus; Test C: SIV virus; Test D: No virus]; with no drug (virus control) and six wells without virus (medium control). The plate is put into a plastic bag and incubated for six days in CO2 atmosphere. To each well in the plate is added 50 µl of XTT ((2,3-bis[2-methoxy-4-nitro-5-sulfophenyl]-5-[(phenylamino)carbonyl]-2H-tetrazolium hydroxide), (1 mg/ml 0.01-0.02 mM N-metyl-phenazonium methosulfate). After six hours of incubation in CO2 atmosphere the plates are covered with adhesive plate sealers and gently mixed on a vortex. Optical densities are determined at a wavelength of 450 nm and a reference wavelength of 650 nm. The percent reduction of cytotoxocity caused by the virus infection is calculated as follows: (OD450 compound - OD450 inf cells)/(OD450 uninf cells - OD450 inf cells)x 100 [formula]

A further data set deals with SIV. Kind of data set: Test G (SIV RT), RT activity in supernatant of infected MT-4/H9 cells. The data set is classed as cell-based. Conditions: Simian immunodeficiency virus. Here is the method: as §1, §2
50 µl of the dilutions 400 mg/ml, 40 mg/ml and 4mg/ml are transferred to the "cell-containing" microplate with a multichannel pipette. (Final concentration: 100, 10 and 1 mg/ml).
as §4, §5

A further data set concerns the target recombinant HIV-RT (Human immunodeficiency virus type 1 group M subtype B, UniProt P04585). In words: Test I (HIVRT (rAdt)), direct inhibition of recombinant HIV-RT. It counts as biochemical. The method in brief:
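Recombinant HIV-RT was incubated 60 min in Tris-HCl pH 7.6 with 100 mM KCl, 4 mM MgCl2 and 4 mM DTT, using (rA)n(dT)12-18 template and 0.3 mM ³H-dTTP. Product was spotted in duplicate on paper discs, TCA-washed and counted by scintillation.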

A further data set relates to HIV virus. In words: Test A (XTT), MT4 cells infected with HIV. Conditions: for % inhibition: Test A. The data set is classed as cell-based. The method in brief: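 MT4 cells in RPMI 1640 with 5% FCS and penicillin/streptomycin were plated in 96-well microplates at 2x10^4 cells/well, given compound diluted from a DMSO stock, then infected with HIV virus suspension. After six days' incubation in CO2, XTT was added for six hours, absorbance read at 450 nm (reference 650 nm), and percent reduction of virus-induced cytotoxicity calculated against infected and uninfected controls.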

For data set [2], the system named is HIV-1. Kind of data set: combination with AZT against HIV-1 in CEM cells, technique of Prichard and Shipman. It counts as cell-based. Conditions: combination of AZT and the compound. How it is done: The combination was evaluated against HIV-1 in CEM cells using the technique of Prichard and Shipman (Antiviral Research, 14, 181-206 (1990)).
Data set [3] in a line: titration pKa (66% DMF/H2O).
Another data set deals with MT4 cells. In words: Test D (XTT), MT4 cells, no virus. It counts as cell-based. Particulars: Homo sapiens. Here is the method: as §6, §7
The mark [4] stands for this setting: Human immunodeficiency virus 1, MT4, Test A, 1 µg/ml.
[5] abbreviates: Human immunodeficiency virus 1, MT4, Test A, 10 µg/ml.
Where [6] appears, read: Human immunodeficiency virus 1, MT4, Test A, 100 µg/ml.

Where two headings read alike, the source gives them in different places.

The results in this text go back to patent EP0540143B1, “Compounds and methods for inhibition of HIV and related viruses” (priority 1991, dated 1993).

For `S=C(NCCc1ccccc1)Nc1nc2c(Cl)cccc2s1`, the inhibition (commonly the percentage by which the read-out fell short of the control) at 0.1 µg/mL is 1% in the data set with HIV-2, 18% in the data set with HIV(II) virus and 9% on recombinant HIV-RT (0.1 µg/ml). Moreover, the inhibition at 1 µg/mL with HIV-2 stood at 6%; with SIV virus, 0%; in the data set with HIV-1 [1], 11%; in the data set on HIV(II) virus, 22%; with SIV, 1%; on recombinant HIV-RT (1 µg/ml), 6%. For the same compound, testing at 1 µg/mL in the data set with HIV virus (setting [4]) gave an inhibition of 4%. Besides, the inhibition at 10 µg/mL in the data set on HIV-2 turned out to be 72%; in the data set with SIV virus, 2%; in the data set on HIV-1 [1], 8%; with HIV(II) virus it was 100%; with SIV it was 1%; on recombinant HIV-RT (10 µg/ml), 1%. Moreover, the inhibition at 10 µg/mL in the data set with HIV virus (setting [5]) was determined as 19%. Further, the inhibition at 100 µg/mL in the data set on HIV-2 stood at 93%; in the data set on SIV virus it was 17%; in the data set on HIV-1 [1], 97%; with HIV(II) virus, 36%; with SIV, 87%; in the data set with HIV virus (setting [6]) it was 100%.

For `Cc1cn([C@H]2C[C@H](N=[N+]=[N-])[C@@H](CO)O2)c(=O)[nH]c1=O` [AZT, reference compound], in the data set on HIV-1 [2], the “concentration at the peak of synergy” value turned out to be 0.005 µg/mL.

Regarding `NCCc1c(F)cccc1F` [Example 312, 2-(2,6-Difluorophenyl)ethylamine], the pKa (commonly the pH at which an ionisable group is half protonated) in data set [3] came to 9.06.

In data set [3] (pKa, 66% DMF), `S=C(NCCC1=CCCCC1)Nc1ccc(Cl)nn1` [Example 336, N-[2-(1-cyclohexenyl)ethyl]-N'-[3-(6-chloro)pyridazinyl]thiourea] yielded a pKa of 12.8.

For `N#Cc1csc(NC(=S)NCCc2ccccc2)n1`, the inhibition at 0.1 µg/mL in the data set on HIV-2 is 67%; in the data set with SIV virus (0.1 µg/ml), 11%; in the data set on HIV-1 [1] (0.1 µg/ml), 99%; with HIV(II) virus, 74%; in the data set with MT4 cells (0.1 µg/ml) it was 0%; at recombinant HIV-RT (0.1 µg/ml), 72%. In addition, in the data set with HIV virus (Human immunodeficiency virus 1, MT4, Test A, 0.1 µg/ml), the inhibition at 0.1 µg/mL worked out at 84%. In addition, the inhibition at 1 µg/mL amounted to 91% with HIV-2; 5% in the data set with SIV virus; 98% with HIV-1 [1]; 90% in the data set on HIV(II) virus; 53% in the data set with MT4 cells (1 µg/ml); 93% on recombinant HIV-RT (1 µg/ml). This compound also registered an inhibition at 1 µg/mL in the data set on HIV virus (setting [4]) of 51%. The inhibition at 10 µg/mL with HIV-2 came out at 94%; with SIV virus, 2%; in the data set with HIV-1 [1], 98%; in the data set with HIV(II) virus, 0%; with MT4 cells (10 µg/ml), 70%; on recombinant HIV-RT (10 µg/ml), 94%. For the same compound, in the data set with HIV virus (setting [5]), the inhibition at 10 µg/mL turned out to be 0%. The inhibition at 100 µg/mL is 96% in the data set on HIV-2; 0% in the data set with SIV virus; 98% in the data set on HIV-1 [1]; 0% in the data set on HIV(II) virus; 93% with MT4 cells (100 µg/ml); 0% in the data set with HIV virus (setting [6]). Also, the % inhibition – broadly, the drop in the measured response relative to a control, in per cent – on recombinant HIV-RT (0.1 µg/ml) is 73%; on recombinant HIV-RT (1 µg/ml), 95%; on recombinant HIV-RT (10 µg/ml) it was 95%; in the data set with HIV virus (1 µg/ml), 63%.

As for `Fc1cccc(F)c1CCNC(=S)Nc1ccc(Cl)nn1` [Example 337, N-[2-(2,6-difluorophenyl)ethyl]-N'-[3-(6-chloro)pyridazinyl] thiourea], the pKa in data set [3] (pKa, 66% DMF) worked out at 12.7.

As to `S=C(NCCc1ccccc1)Nc1nc2ccc(Cl)cc2s1`, the inhibition at 1 µg/mL in the data set on HIV-2 came to 1%; with SIV virus, 0%; in the data set with HIV-1 [1], 1%; in the data set with HIV(II) virus it was 9%; in the data set on SIV, 1%; on recombinant HIV-RT (1 µg/ml), 18%. The compound further had an inhibition at 1 µg/mL with HIV virus (setting [4]) of 0%. In addition, the inhibition at 10 µg/mL is 79% in the data set with HIV-2; 0% in the data set with SIV virus; 51% in the data set on HIV-1 [1]; 67% in the data set on HIV(II) virus; 12% in the data set with SIV; 18% at recombinant HIV-RT (10 µg/ml). This compound also came in with an inhibition at 10 µg/mL with HIV virus (setting [5]) of 63%. Besides, the inhibition at 100 µg/mL in the data set with HIV-2 came to 98%; in the data set with SIV virus, 21%; in the data set on HIV-1 [1] it was 96%; in the data set with HIV(II) virus it was 27%; with SIV, 90%; with HIV virus (setting [6]) it was 68%. Besides, the inhibition at 0.1 µg/mL in the data set with HIV(II) virus was found to be 24%; on recombinant HIV-RT (0.1 µg/ml) it was 12%. For the same compound, the “% inhibition” value is on record as 67% in the data set with HIV virus (10 µg/ml) and 49% in the data set on HIV virus (100 µg/ml).

In the case of `S=C(NCCc1ccccc1)Nc1nccs1` [drawing 35], in the data set on HIV-1 [2], the “concentration at the peak of synergy” value was found to be 0.5 µg/mL and the “effect of the combination” value was “synergistic effect”.
